Measurements reported in patent US20260131020A1, “IONIZABLE CATIONIC LIPID FOR RNA DELIVERY” (Arcturus Therapeutics, Inc., priority 2016, published 2026).

Columns and labels:
[1] = Titration of lipids to measure pKa; format: physicochemical; settings: lipids titrated
From the text: The lipids were titrated to measure their pKa values.

mouse epo mRNA = assay: In vivo EPO mRNA stability: epo mRNA levels after injection of lipid encapsulated mouse epo mRNA; parameters: species or system Female Balb/c mice; settings: nanoparticles with the cationic lipid, i.v. tail vein, 0.03 and 0.1 mg/kg mRNA, blood at 6 hours; FIG. 14
Experimental: Levels of mRNA in plasma were measured and compared following injection of nanoparticles comprising different cationic lipids. Female Balb/c mice (6-8 week old) were used for evaluation of plasma erythropoietin (epo) levels in vivo following injection of lipid encapsulated mouse epo mRNA. All formulations were administered intravenously via tail vein injection at a dose of 0.03 and 0.1 mg/kg at a dosing volume of 5 ml/kg. Terminal blood collection was performed via cardiac puncture under 2% isoflurane at 6 hours after formulation injections. Blood was collected into 0.109 M citrate buffer tube and processed by centrifugation at 5000 rpm for 10 minutes. Serum was collected and epo mRNA levels were analyzed. Results are shown at FIG. 14.

Factor VII = assay: In vivo mouse Factor VII siRNA knockdown (chromogenic assay of plasma Factor VII protein); parameters: species or system Female C57BL/6 mice; settings: Factor VII siRNA formulations, i.v. tail vein, both at 0.03 and 0.1 mg/kg, plasma at 48 hours; FIG. 15
Experimental: Using a liver-directed in vivo screen of the liposome libraries, a series of compounds were tested that facilitate high levels of siRNA mediated gene silencing in hepatocytes, the cells comprising the liver parenchyma. Factor VII, a blood clotting factor, is a suitable target gene for assaying functional siRNA delivery to liver. Because this factor is produced specifically in hepatocytes, gene silencing indicates successful delivery to parenchyma, as opposed to delivery to the cells of the reticulo-endothelial system (e.g., Kupffer cells). Furthermore, Factor VII is a secreted protein that can be readily measured in serum, obviating the need to euthanize animals. Silencing at the mRNA level can be readily determined by measuring levels of protein. This is because the protein's short half-life (2-5 hour). Compositions with siRNA directed to Factor VII were formulated with ATX-002, ATX-57, and ATX-58, and comparator sample phosphate-buffered saline (PBS). Female C57BL/6 mice (6-8 week old) were used for FVII siRNA knockdown (KD) experiments. […] Plasma was collected and Factor VII protein levels were analyzed by chromogenic assay (Biophen FVII, Aniara Corporation). A standard curve was constructed using samples from PBS-injected mice and relative Factor VII expression was determined by comparing treated groups to untreated PBS control.

epo protein = assay: In vivo epo protein expression after delivery of lipid encapsulated mouse epo mRNA (epo ELISA); parameters: species or system Female Balb/c mice; settings: mouse epo mRNA nanoparticles, i.v. tail vein, at 0.1 mg/kg (so in the source), serum at 6 hours; FIG. 16
Experimental: Female Balb/c mice (6-8 week old) were used for evaluation of epo protein expression in vivo following delivery of lipid encapsulated mouse epo mRNA. All formulations were administered intravenously via tail vein injection at a dose of 0.03 and 0.1 mg/kg at a dosing volume of 5 mL/kg. Terminal blood collection was performed via cardiac puncture under 2% isoflurane at 6 hours after formulation injections. Blood was collected into 0.109 M citrate buffer tube and processed by centrifugation at 5000 rpm for 10 minutes. Serum was collected and epo protein levels were analyzed by epo ELISA assay (R&D systems). A standard curve was constructed using samples from PBS-injected mice and relative epo expression was determined by comparing treated groups to untreated PBS control.

| pKa [1] | Structure (SMILES) | epo mRNA levels compared with ATX-2 (mouse epo mRNA) | Factor VII knockdown activity compared with ATX-002 (Factor VII) | epo expression compared with ATX-2 (epo protein) |
| --- | --- | --- | --- | --- |
| 6 | CCCCCC/C=C\COC(=O)CCCN(CCCC(=O)OC(CCCCCCC)CCCCCCCC)C(=O)SCCN(C)C (centres unmarked) [ATX-57] | substantial improvement over ATX-2 | substantially more effective than ATX-002 | substantially higher amounts |
| 6.1 | CCCCCC/C=C\COC(=O)CCCN(CCCC(=O)OC(CCCCCC)CCCCCCC)C(=O)SCCN(C)C (centres unmarked) [ATX-58] |  | substantially more effective than ATX-002 |  |
| 5.9 | CCCCCC/C=C\COC(=O)CCCN(CCCC(=O)OC(CCCCCCC)CCCCCCC)C(=O)SCCN(C)C [ATX-81] | substantial improvement over ATX-2 |  |  |
|  | CCCCCC/C=C\COC(=O)CCCCCN(CCC(=O)OC(CCCCCCC)CCCCCCC)C(=O)SCCN(C)C [ATX-82] | substantial improvement over ATX-2 |  |  |
|  | CCCCCC/C=C\COC(=O)CCCCCN(CCCC(=O)OC(CCCCCCC)CCCCCCC)C(=O)SCCN(C)C [ATX-83] | substantial improvement over ATX-2 |  |  |
| 6.1 | CCCCCC/C=C\COC(=O)CCCCCN(CCCC(=O)OC(CCCCCC)CCCCCC)C(=O)SCCN(C)C [ATX-84] | substantial improvement over ATX-2 |  |  |
|  | CCCCCC/C=C\COC(=O)CCCN(CCCC(=O)OC(CCCCCC)CCCCCC)C(=O)SCCN(C)C [ATX-86] | substantial improvement over ATX-2 |  |  |
|  | CCCCCC/C=C\COC(=O)CCCN(CCCC(=O)OC(CCCCCCCC)CCCCCCCC)C(=O)SCCN(C)C [ATX-87] | substantial improvement over ATX-2 |  |  |
